Experimental data published in US20150175599A1, “FAAH Inhibitors” (Ironwood Pharmaceuticals, Inc., priority 2010, published 2015).
Like-named read-outs stand apart in the source and are kept apart here.

What was measured:
human FAAH-1 = target: T1, human FAAH-1 (Homo sapiens, UniProt O00519); test: Whole cell anandamide hydrolysis assay (HeLa clone 5c5 transfected with human FAAH-1); assay type: cell-based
T1 sequence (O00519 1-579): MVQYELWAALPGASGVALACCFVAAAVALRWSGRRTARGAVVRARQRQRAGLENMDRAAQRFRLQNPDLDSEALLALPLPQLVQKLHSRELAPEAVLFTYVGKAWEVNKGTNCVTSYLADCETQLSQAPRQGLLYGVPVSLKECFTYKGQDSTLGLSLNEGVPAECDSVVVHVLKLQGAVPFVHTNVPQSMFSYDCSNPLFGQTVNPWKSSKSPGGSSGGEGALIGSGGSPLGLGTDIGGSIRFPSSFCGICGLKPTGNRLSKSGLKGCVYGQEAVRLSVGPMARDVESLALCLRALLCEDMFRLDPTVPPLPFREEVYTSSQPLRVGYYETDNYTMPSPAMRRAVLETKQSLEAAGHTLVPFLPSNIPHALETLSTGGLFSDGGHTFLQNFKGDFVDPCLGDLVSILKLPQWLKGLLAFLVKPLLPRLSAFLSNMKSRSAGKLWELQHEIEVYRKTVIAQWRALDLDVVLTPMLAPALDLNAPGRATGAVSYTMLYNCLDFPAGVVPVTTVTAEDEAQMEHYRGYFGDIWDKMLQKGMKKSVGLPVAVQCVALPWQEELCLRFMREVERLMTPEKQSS
Summary of the method: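 Stable HeLa clone 5c5 expressing human FAAH-1, pre-incubated with compound 10 min at 37° C in DMEM/F12 with 15 mM HEPES pH 7.4 and 0.1% fatty-acid-free BSA. [3H]-anandamide (5 μM stock) added for 15 min; [3H]-ethanolamine separated on charcoal and counted. IC50 from curves constrained to 100% and 0%.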

[1] = Pharmacokinetic study, plasma level 2 hours after oral dosing in rats; assay type: in vivo
Summary of the method: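 Rats dosed by oral gavage in 1% DMA/99% Vitamin E TPGS; EDTA plasma taken by retro-orbital bleed 2 h post-dose. Acetonitrile precipitation with internal standard, LC/MS/MS quantitation against plasma standards 0.1–3000 ng/mL.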

[2] = HeLa clone 5c5 expressing human FAAH-1, read-out: human FAAH whole cell IC50

Compound	IC50 (human FAAH-1; [2]) [nM]	2 hr plasma level-ng/mL (rat, 10 mg/kg PO, 2 hr) [1]	IC50 (human FAAH-1) [nM]
COc1cc(NC(=O)C(=O)c2c(C)n(Cc3ccc(Cl)cc3)c3cc(C)c(OC)cc23)ccn1 [Compound 74, 2-(1-(4-chlorobenzyl)-5-methoxy-2,6-dimethyl-1H-indol-3-yl)-N-(2-methoxypyridin-4-yl)-2-oxoacetamide]	< 100	C (C = between 100 nM and 1000 nM)	–
COc1cc(NC(=O)C(=O)c2c(C)n(Cc3ccc(Cl)cn3)c3ncc(C)cc23)ccn1 [Compound 75, (1-((5-chloropyridin-2-yl)methyl)-2,5-dimethyl-1H-pyrrolo[2,3-b]pyridin-3-yl)-N-(2-methoxypyridin-4-yl)-2-oxoacetamide]	< 100	D (D = greater than 1000 nM)	–
COc1cc(NC(=O)C(=O)c2c(C)n(Cc3ccc(Cl)cc3)c3ncc(C)cc23)ccn1 [Compound 76, 2-(1-(4-chlorobenzyl)-2,5-dimethyl-1H-pyrrolo[2,3-b]pyridin-3-yl)-N-(2-methoxypyridin-4-yl)-2-oxoacetamide]	< 100	C (C = between 100 nM and 1000 nM)	–
COc1ccc2c(c1)c(C(=O)C(=O)Nc1ccnc(OC)c1)c(C)n2Cc1ccccn1 [Compound 77, 2-(5-methoxy-2-methyl-1-(pyridin-2-ylmethyl)-1H-indol-3-yl)-N-(2-methoxypyridin-4-yl)-2-oxoacetamide]	< 100	C (C = between 100 nM and 1000 nM)	–
COc1cc(NC(=O)C(=O)c2c(C)n(Cc3ncc(F)cc3F)c3ccc(C)cc23)ccn1 [Compound 88, 2-(1-((3,5-difluoropyridin-2-yl)methyl)-2,5-dimethyl-1H-indol-3-yl)-N-(2-methoxypyridin-4-yl)-2-oxoacetamide]	–	D (D = greater than 1000 nM)	< 100
COc1ccc(Cn2c(C)c(C(=O)C(=O)Nc3ccnc(OC)c3)c3cc(OC)c(C)cc32)nc1 [Compound 96, 2-(5-methoxy-1-((5-methoxypyridin-2-yl)methyl)-2,6-dimethyl-1H-indol-3-yl)-N-(2-methoxypyridin-4-yl)-2-oxoacetamide]	< 100	C (C = between 100 nM and 1000 nM)	–
COc1cc(NC(=O)C(=O)c2c(C)n(Cc3ncc(Cl)cc3F)c3cc(Cl)c(OC)cc23)ccn1 [Compound 97, 2-(6-chloro-1-((5-chloro-3-fluoropyridin-2-yl)methyl)-5-methoxy-2-methyl-1H-indol-3-yl)-N-(2-methoxypyridin-4-yl)-2-oxoacetamide]	< 100	C (C = between 100 nM and 1000 nM)	–
COc1ccc(Cn2c(C)c(C(=O)C(=O)Nc3ccnc(OC)c3)c3cc(OC)c(Cl)cc32)nc1 [Compound 98, 2-(6-chloro-5-methoxy-1-((5-methoxypyridin-2-yl)methyl)-2-methyl-1H-indol-3-yl)-N-(2-methoxypyridin-4-yl)-2-oxoacetamide]	< 100	C (C = between 100 nM and 1000 nM)	–
COc1cc(NC(=O)C(=O)c2c(C)n(Cc3ncc(Cl)cc3F)c3cc(F)c(OC)cc23)ccn1 [Compound 99, 2-(1-((5-chloro-3-fluoropyridin-2-yl)methyl)-6-fluoro-5-methoxy-2-methyl-1H-indol-3-yl)-N-(2-methoxypyridin-4-yl)-2-oxoacetamide]	< 100	D (D = greater than 1000 nM)	–
COc1cc(NC(=O)C(=O)c2c(C)n(Cc3ncc(F)cc3F)c3cc(F)c(OC)cc23)ccn1 [Compound 101, 2-(1-((3,5-difluoropyridin-2-yl)methyl)-6-fluoro-5-methoxy-2-methyl-1H-indol-3-yl)-N-(2-methoxypyridin-4-yl)-2-oxoacetamide]	< 100	D (D = greater than 1000 nM)	–
